Assay results as given in ChEMBL document CHEMBL3885881, “DrugMatrix”.

Organism: Rattus norvegicus
Test: DrugMatrix - Regimen: Daily Repeat
Type: toxicity, organism-based, Sprague-Dawley
Parameters: regimen Daily Repeat, gender Male, age 6-8 weeks
Settings: in vivo, po, route oral GAVAGE, […]; for SODIUM / TOTAL BILIRUBIN / TOTAL PROTEIN / URIC ACID / ALANINE AMINOTRANSFERASE / ALBUMIN / ALKALINE PHOSPHATASE / ASPARTATE AMINOTRANSFERASE / BLOOD UREA NITROGEN / CARBON DIOXIDE / CHLORIDE / CHOLESTEROL / CREATINE PHOSPHOKINASE / CREATININE / GLUCOSE / LACTATE DEHYDROGENASE / LIPASE / PHOSPHORUS / POTASSIUM: tissue Plasma; for ABSOLUTE BASOPHIL / ABSOLUTE EOSINOPHIL / ABSOLUTE LYMPHOCYTE / ABSOLUTE MONOCYTE / ABSOLUTE SEGMENTED NEUTROPHIL / BASOPHIL / EOSINOPHIL / ERYTHROCYTE COUNT / HEMATOCRIT / HEMOGLOBIN / LEUKOCYTE COUNT / LYMPHOCYTE / MEAN CORPUSCULAR HEMOGLOBIN / MEAN CORPUSCULAR HEMOGLOBIN CONCENTRATION / MEAN CORPUSCULAR VOLUME / MONOCYTE / NEUTROPHIL / NUCLEATED RED BLOOD CELLS / PLATELET COUNT: tissue Blood
[1] = 12 mg/kg, 72 h, dose level M1, time 3 day
[2] = 12 mg/kg, 120 h, dose level M1, time 5 day
[3] = 75 mg/kg, 72 h, dose level M2, time 3 day
[4] = 75 mg/kg, 120 h, dose level M2, time 5 day

## C#C[C@]1(O)CC[C@H]2[C@@H]3CCC4=CC(=O)CC[C@@H]4[C@H]3CC[C@@]21C [NORETHINDRONE]
[1]
  SODIUM: 144.57 MEQ/L
  TOTAL BILIRUBIN: 0.1 mg/dL
  TOTAL PROTEIN: 6.07 G/DL
  URIC ACID: 1 mg/dL
[2]
  ABSOLUTE BASOPHIL: 0 CELLS/uL
  ABSOLUTE EOSINOPHIL: 35 CELLS/uL
  ABSOLUTE LYMPHOCYTE: 6197.67 CELLS/uL
  ABSOLUTE MONOCYTE: 151.67 CELLS/uL
  ABSOLUTE SEGMENTED NEUTROPHIL: 315.67 CELLS/uL
  BASOPHIL: 0%
  EOSINOPHIL: 0.67%
  ERYTHROCYTE COUNT: 6.19 x10E6/uL
  HEMATOCRIT: 37.27%
  HEMOGLOBIN: 14.27 G/DL
  LEUKOCYTE COUNT: 6.7 x10E3/uL
  LYMPHOCYTE: 92.67%
  MEAN CORPUSCULAR HEMOGLOBIN: 23.1 pg
  MEAN CORPUSCULAR HEMOGLOBIN CONCENTRATION: 38.3 G/DL
  MEAN CORPUSCULAR VOLUME: 60.33 fL
  MONOCYTE: 2%
  NEUTROPHIL: 4.67%
  NUCLEATED RED BLOOD CELLS: 0 /100WBC
  PLATELET COUNT: 1179.67 x10E3/uL
  ALANINE AMINOTRANSFERASE: 68.33 u/L
  ALBUMIN: 4.67 G/DL
  ALKALINE PHOSPHATASE: 474.33 u/L
  ASPARTATE AMINOTRANSFERASE: 95.67 u/L
  BLOOD UREA NITROGEN: 10 mg/dL
  CARBON DIOXIDE: 25.67 mmol/L
  CHLORIDE: 106.67 MEQ/L
  CHOLESTEROL: 26 mg/dL
  CREATINE PHOSPHOKINASE: 277.33 u/L
  CREATININE: 0.25 mg/dL
  GLUCOSE: 177.33 mg/dL
  LACTATE DEHYDROGENASE: 205 u/L
  LIPASE: 8 u/L
  PHOSPHORUS: 12.13 mg/dL
  POTASSIUM: 5.86 MEQ/L
  SODIUM: 149.4 MEQ/L
  TOTAL BILIRUBIN: 0.1 mg/dL
  TOTAL PROTEIN: 6.73 G/DL
  URIC ACID: 1.83 mg/dL
[3]
  ABSOLUTE BASOPHIL: 0 CELLS/uL
  ABSOLUTE EOSINOPHIL: 0 CELLS/uL
  ABSOLUTE LYMPHOCYTE: 4761.67 CELLS/uL
  ABSOLUTE MONOCYTE: 38.67 CELLS/uL
  ABSOLUTE SEGMENTED NEUTROPHIL: 433 CELLS/uL
  BASOPHIL: 0%
  EOSINOPHIL: 0%
  ERYTHROCYTE COUNT: 5.41 x10E6/uL
  HEMATOCRIT: 33.4%
  HEMOGLOBIN: 12.87 G/DL
  LEUKOCYTE COUNT: 5.23 x10E3/uL
  LYMPHOCYTE: 91%
  MEAN CORPUSCULAR HEMOGLOBIN: 23.77 pg
  MEAN CORPUSCULAR HEMOGLOBIN CONCENTRATION: 38.53 G/DL
  MEAN CORPUSCULAR VOLUME: 61.77 fL
  MONOCYTE: 0.67%
  NEUTROPHIL: 8.33%
  NUCLEATED RED BLOOD CELLS: 0 /100WBC
  PLATELET COUNT: 1166.67 x10E3/uL
  ALANINE AMINOTRANSFERASE: 57 u/L
  ALBUMIN: 4.57 G/DL
  ALKALINE PHOSPHATASE: 692 u/L
  ASPARTATE AMINOTRANSFERASE: 76.67 u/L
  BLOOD UREA NITROGEN: 7.67 mg/dL
  CARBON DIOXIDE: 30.67 mmol/L
  CHLORIDE: 104 MEQ/L
  CHOLESTEROL: 29 mg/dL
  CREATINE PHOSPHOKINASE: 225 u/L
  CREATININE: 0.14 mg/dL
  GLUCOSE: 135.67 mg/dL
  LACTATE DEHYDROGENASE: 89 u/L
  LIPASE: 8 u/L
  PHOSPHORUS: 10.6 mg/dL
  POTASSIUM: 5.59 MEQ/L
  SODIUM: 145.07 MEQ/L
  TOTAL BILIRUBIN: 0.17 mg/dL
  TOTAL PROTEIN: 6.37 G/DL
  URIC ACID: 0.63 mg/dL
[4]
  ABSOLUTE BASOPHIL: 0 CELLS/uL
  ABSOLUTE EOSINOPHIL: 0 CELLS/uL
  ABSOLUTE LYMPHOCYTE: 9250.67 CELLS/uL
  ABSOLUTE MONOCYTE: 86 CELLS/uL
  ABSOLUTE SEGMENTED NEUTROPHIL: 330 CELLS/uL
  BASOPHIL: 0%
  EOSINOPHIL: 0%
  ERYTHROCYTE COUNT: 6.52 x10E6/uL
  HEMATOCRIT: 38.67%
  HEMOGLOBIN: 14.53 G/DL
  LEUKOCYTE COUNT: 9.67 x10E3/uL
  LYMPHOCYTE: 95.33%
  MEAN CORPUSCULAR HEMOGLOBIN: 22.3 pg
  MEAN CORPUSCULAR HEMOGLOBIN CONCENTRATION: 37.6 G/DL
  MEAN CORPUSCULAR VOLUME: 59.27 fL
  MONOCYTE: 1%
  NEUTROPHIL: 3.67%
  NUCLEATED RED BLOOD CELLS: 0 /100WBC
  PLATELET COUNT: 928.67 x10E3/uL
  ALANINE AMINOTRANSFERASE: 49 u/L
  ALBUMIN: 5 G/DL
  ALKALINE PHOSPHATASE: 440.33 u/L
  ASPARTATE AMINOTRANSFERASE: 68.33 u/L
  BLOOD UREA NITROGEN: 7 mg/dL
  CARBON DIOXIDE: 27 mmol/L
  CHLORIDE: 104.33 MEQ/L
  CHOLESTEROL: 35 mg/dL
  CREATINE PHOSPHOKINASE: 233.67 u/L
  CREATININE: 0.18 mg/dL
  GLUCOSE: 155.67 mg/dL
  LACTATE DEHYDROGENASE: 123.33 u/L
  LIPASE: 7.33 u/L
  PHOSPHORUS: 11 mg/dL
  POTASSIUM: 5.7 MEQ/L
  SODIUM: 147.73 MEQ/L
  TOTAL BILIRUBIN: 0.13 mg/dL
  TOTAL PROTEIN: 7.03 G/DL
  URIC ACID: 1.5 mg/dL
